Key:
[1] = test system: virus HIV (souche LAV-BRU); experiment: Inhibition of the cytopathogenic effect of HIV in infected human lymphocyte culture (MTT viability); format: cell-based; conditions: 21 days after infection, human lymphocytes
Protocol: (§1) La source des leucocytes humains est un stock congelé en N₂ liquide (100 x 10⁶ cellules/ampoule) de leucocytes obtenus sur cytaphérèse d'individus (donneurs) sains. Au moment de l'essai, les cellules sont décongelées, mises en suspension dans 80 % de sérum de veau foetal (SVF) et 20 % de diméthylsulfoxyde et centrifugées à 1000 rpm (10 minutes). Le culot est mis en suspension dans un milieu RPMI [contenant 10 % Lymphocult (Interleukine 2 en provenance de Biotest Diagnostic), 10 % de SVF, pénicilline et streptomycine, respectivement 40 U/ml et 40 µg/ml], à raison de 1 x 10⁶ cellules/ml. Habituellement, on utilise un flacon de culture cellulaire contenant 40 à 60 ml de cette suspension cellulaire. Les cellules sont incubées 4 jours en présence de phytohémagglutinine PHA (0,1 % DIFCO), à 37°C sous une atmosphère contenant 95 % d'air et 5 % de gaz carbonioue. Les cellules sont alors centrifugées, lavées une fois dans du milieu frais (ci-dessus) et remises en suspension dans le même milieu à 1 x 10⁶ cellules/ml [(RPMI 10 % de SVF, 10 % de Lymphocult-antibiotiques ci-dessus) mais contenant 10 U/ml d'anticorps anti-interferon (IFN α) 5 µg/ml de prolybrène.
(§2) 200 µl de cette suspension cellulaire (200.000 cellules) sont déposés dans des puits d'une microplaque de cultures (à 96 puits). A chaque puits, on ajoute 25 µl du produit à tester [dilué 10 fois dans du tampon phosphate isotonique (TPI)] ou 25 µl du solvant TPI pour le contrôle. L'essai est fait en 2 séries : sur cellules infectées (pour déterminer l'activité antivirale) et sur cellules non infectées pour déterminer l'activité antiproliférative (cytotoxicité). On infecte alors avec 25 µl du virus HIV (souche LAV-BRU), alors que l'autre série reçoit (par puits) 25 µl du milieu (ci-dessus). Les cultures sont incubées 7 jours à 37°C (95 % d'air, 5 % de CO₂). 200 µl de surnageant sont alors prélevés, rejetés ou utilisés pour la détermination de l'activité transcriptase inverse. Les cellules du fond (sous 50 µl) sont alors soit testées pour leur viabilité (test MTT), soit additionnées de 200 µl de milieu frais (ci-dessus). Dans ce dernier cas, l'incubation est prolongée pendant encore 7 jours (test au jour 14). L'opération peut être répétée une semaine après (test au jour 21).

lymphocytes humains = experiment: Antiproliferative activity (cytotoxicity) on non-infected human lymphocytes (MTT viability); format: cell-based; conditions: day 21
Protocol: as §1, §2

[2] = test system: lignée lymphoblastoïde CEM clone 13; experiment: Cytotoxicity on non-infected CEM clone 13 cells (MTT viability); format: cell-based, humaines
Protocol: Dans une microplaque de 96 puits on dépose 25 µl/puits d'une solution de produit à tester ou de tampon phosphate isotonique (TPI) dans le cas des contrôles. Les produits sont étudiés à différentes concentrations (souvent 8), à raison de 4 puits par concentration. On ajoute alors 125 µl d'une suspension de cellules CEM dans le milieu RPMI contenant 10 % de sérum de veau foetal, 40 U/ml de pénicilline, 40 µg/ml de streptomycine et 5 µg/ml de polybrène (3500 cellules par puits) et les microplaques sont incubées une heure à 37°C, sous une atmosphère contenant 5 % de gaz carbonique. Pour chaque concentration, l'essai est partagé en 2 parties : une partie sur cellules infectées, pour la détermination de l'activité antivirale et l'autre partie sur cellules non infectées, pour déterminer la cytotoxicité des produits. On infecte alors la première série avec HIV (100 µl par puit d'une suspension de virus LAV-1-BRU contenant 200-300 TCID50) tandis que l'autre série reçoit 100 µl de milieu RPMI tel que défini précédemment. Au bout de 7 jours d'incubation, 175 µl de surnageant sont prélevés et rejetés. La viabilité cellulaire est déterminée selon une modification de la technique décrite par R. Pauwels et coll., J. Virol.
Les puits, contenant encore les cellules (infectées ou non infectées), reçoivent 10 µl d'une solution de MTT (méthylthiazoletétrazolium) à 5 mg/ml dans du tampon phosphate isotonique. Pendant une période d'incubation de 4 heures, le MTT est converti en un sel de formazan (bleu) à l'intérieur des cellules vivantes et proportionnellement à leur nombre, alors que rien n'apparaît dans les puits ne contenant plus que des cellules mortes. On ajoute alors 120 µl d'isopropanol (contenant 0,04 mole/l d'acide chlorhydrique) et les microplaques sont agitées jusqu'à la solubilisation du bleu de formazan. L'absorption à 540 nm est lue avec un lecteur automatique de réactions ELISA en microplaques.
Pour les essais de plus longue durée, on procède comme décrit précédemment jusqu'au jour 7. A ce moment, 100 µl de cellules sont prélevés pour mesurer la proportion de cellules vivantes et le restant est remis en culture avec du milieu frais contenant les produits aux mêmes concentrations. Cette opération est répétée tous les 4 jours.

Row | Compound | Cellules infectées Densité optique ([1]; 0,04 µg/ml) | Cellules infectées Densité optique ([1]; 0,12 µg/ml) | Cellules infectées Densité optique ([1]; 0,37 µg/ml) | Cellules infectées Densité optique ([1]; 10 µg/ml) | Cellules infectées Densité optique ([1]; 1,11 µg/ml) | Cellules non infectées Densité optique (lymphocytes humains; 0,04 µg/ml) | Cellules non infectées Densité optique (lymphocytes humains; 0,12 µg/ml) | Cellules non infectées Densité optique (lymphocytes humains; 0,37 µg/ml) | Cellules non infectées Densité optique (lymphocytes humains; 10 µg/ml) | Cellules non infectées Densité optique (lymphocytes humains; 1,11 µg/ml) | Cellules non infectées Densité optique (lymphocytes humains; 3,33 µg/ml) | Cellules non infectées Densité optique ([2]; 0,01 µg/ml, JOUR 14) | Cellules non infectées Densité optique ([2]; 0,01 µg/ml, JOUR 18) | Cellules non infectées Densité optique ([2]; 0,01 µg/ml, day 7) | Cellules non infectées Densité optique ([2]; 0,04 µg/ml, JOUR 14) | Cellules non infectées Densité optique ([2]; 0,04 µg/ml, JOUR 18) | Cellules non infectées Densité optique ([2]; 0,04 µg/ml, day 7) | Cellules non infectées Densité optique ([2]; 0,12 µg/ml, JOUR 14) | Cellules non infectées Densité optique ([2]; 0,12 µg/ml, JOUR 18) | Cellules non infectées Densité optique ([2]; 0,12 µg/ml, day 7) | further results
1 | doxycycline [Exemple 2] | 0,530 | 0,590 | 0,550 | 0,125 | 0,773 | 0,775 | 0,765 | 0,853 | 0,103 | 0,835 | 0,670 | 0,980 | 1,100 | 1,530 | 0,950 | 1,050 | 1,34 | 1,020 | 1,020 | 1,53 | Cellules non infectées Densité optique ([2]; 0,37 µg/ml, JOUR 14): 1,000; Cellules non infectées Densité optique ([2]; 0,37 µg/ml, JOUR 18): 1,000; Cellules non infectées Densité optique ([2]; 0,37 µg/ml, day 7): 1,60; Cellules non infectées Densité optique ([2]; 10 µg/ml, JOUR 14): 0,100; Cellules non infectées Densité optique ([2]; 10 µg/ml, JOUR 18): 0,100; Cellules non infectées Densité optique ([2]; 10 µg/ml, day 7): 0,740; Cellules non infectées Densité optique ([2]; 30 µg/ml, day 7): 0,2; Cellules non infectées Densité optique ([2]; 1,11 µg/ml, JOUR 14): 0,960; Cellules non infectées Densité optique ([2]; 1,11 µg/ml, JOUR 18): 1,020; Cellules non infectées Densité optique ([2]; 1,11 µg/ml, day 7): 1,50; Cellules non infectées Densité optique ([2]; 3,33 µg/ml, JOUR 14): 0,950; Cellules non infectées Densité optique ([2]; 3,33 µg/ml, JOUR 18): 0,950; Cellules non infectées Densité optique ([2]; 3,33 µg/ml, day 7): 1,50
2 | CN(C)c1ccc(O)c2c1C[C@H]1C[C@H]3[C@H](N(C)C)C(O)=C(C(N)=O)C(=O)[C@@]3(O)C(O)=C1C2=O [Exemple 5, minocycline] | 0,530 | 0,435 | 0,640 | 0,540 | 0,835 | 0,836 | 0,775 | 0,850 | 0,833 | 0,980 | 0,900 | 1,100 | 1,050 | 1,590 | 1,250 | 1,050 | 1,650 | 1,200 | 1,100 | 1,750 | Cellules infectées Densité optique ([1]; 3,33 µg/ml): 0,750; Cellules non infectées Densité optique ([2]; 0,37 µg/ml, JOUR 14): 1,250; Cellules non infectées Densité optique ([2]; 0,37 µg/ml, JOUR 18): 1,150; Cellules non infectées Densité optique ([2]; 0,37 µg/ml, day 7): 1,670; Cellules non infectées Densité optique ([2]; 10 µg/ml, JOUR 14): 0,100; Cellules non infectées Densité optique ([2]; 10 µg/ml, JOUR 18): 0,100; Cellules non infectées Densité optique ([2]; 10 µg/ml, day 7): 0,480; Cellules non infectées Densité optique ([2]; 30 µg/ml, day 7): 0,420; Cellules non infectées Densité optique ([2]; 1,11 µg/ml, JOUR 14): 1,200; Cellules non infectées Densité optique ([2]; 1,11 µg/ml, JOUR 18): 1,100; Cellules non infectées Densité optique ([2]; 1,11 µg/ml, day 7): 1,760; Cellules non infectées Densité optique ([2]; 3,33 µg/ml, JOUR 14): 0,350; Cellules non infectées Densité optique ([2]; 3,33 µg/ml, JOUR 18): 0,400; Cellules non infectées Densité optique ([2]; 3,33 µg/ml, day 7): 1,650

— patent EP0394122A2, “Use of tetracyclines to manufacture a medicament for the treatment and prevention of AIDS” (priority 1989, dated 1990)
